{
  "source": "patent US4584377A",
  "about": "“Novel Fredericamycin A derivatives” (SS Pharmaceutical Co., Ltd., priority 1983, dated 1986)",
  "key": {"[1]": {"assay": "physchem", "assay_type": "physicochemical", "settings": "10 μg/ml in dimethylsulfoxide/physiological saline; for Percentage remainder: 0 hr.; for remaining at 3 h / remaining at 6 h / remaining at 24 h / remaining at 48 h / remaining at 72 h: read-out: Percentage remainder", "protocol": "The stability of some Fredericamycin A derivatives and Fredericamycin A in their aqueous solutions were tested in accordance with the following procedures.\nThe test compounds were individually dissolved in dimethylsulfoxide, followed by dilution of the resulting solutions with physiological saline to adjust the final concentrations of the test compounds and Fredericamycin to 10 μg/ml respectively. The thus-prepared test solutions were then subjected to high performance liquid chromatography after predetermined time intervals to measure the percentage remainders of the test compounds."}, "[2]": {"test_system": "mouse leukemia P-388", "assay": "Antitumor effect, survival of tumor-inoculated mice", "assay_type": "in vivo, CDF1 mice", "settings": "intraperitoneally, once a day for 10 days", "protocol": "(§1) Antitumor effects of some Fredericamycin A derivatives against Ehrlich carcinoma, Meth-A fibrosarcoma and mouse leukemia P-388 were tested in accordance with the following procedures. Antitumor effects against Ehrlich carcinoma and Meth-A fibrosarcoma are expressed by percentage of mean survival time of test and control animals. Antitumor effects against P-388 are expressed by percentage of median survival time of test and control animals.\n(§2) (ii) Meth-A fibrosarcoma and mouse leukemia P-388:\n(§3) 1×10^6 tumor cells were inoculated to CDF1 mice (.male., Charles River Japan Inc.) intraperitoneally. Each tested compound was given intraperitoneally once a day for 10 days from 1 day after tumor inoculation."}, "[3]": {"test_system": "Ehrlich carcinoma", "assay": "Antitumor effect, survival of tumor-inoculated mice", "assay_type": "in vivo, ICR mice", "settings": "intraperitoneally, once a day for 10 days"}, "[4]": {"test_system": "Meth-A fibrosarcoma", "assay": "Antitumor effect, survival of tumor-inoculated mice", "assay_type": "in vivo, CDF1 mice", "settings": "intraperitoneally, once a day for 10 days", "protocol": "as §1, §2, §3"}, "[5]": {"test_system": "Staphylococcus epidermidis ATCC 12228", "assay": "MIC, antibacterial activity (agar culture)", "assay_type": "cell-based", "settings": "ATCC12228, 37° C., 18-20 hours, Mueller-Hinton agar, read-out: Minimum inhibitory concentration MIC"}, "[6]": {"test_system": "Piricularia oryzae IAM 5016", "assay": "microbe, parasite or virus in culture", "assay_type": "cell-based", "settings": "120 h; read-out: Minimum inhibitory concentration MIC"}, "[7]": {"settings": "Mus musculus, ip, 240 h, 2.0 mg/kg/day, read-out: percentage of mean survival time of test and control animals"}, "[8]": {"settings": "Mus musculus, ip, 240 h, 0.5 mg/kg/day, read-out: percentage of mean survival time of test and control animals"}, "[9]": {"settings": "Mus musculus, ip, 240 h, 1.0 mg/kg/day, read-out: percentage of mean survival time of test and control animals"}},
  "data": [
    {"compound": "CCCCCc1cc2cc3c(c(O)c2c(=O)[nH]1)C1(CC3)C(=O)c2c(c(OC(C)=O)c3c(OC(C)=O)c(OC)cc(OC(C)=O)c3c2OC(C)=O)C1=O", "note": "(centres unmarked) [Compound 12, leucotetraacetyltetrahydrofredericamycin A]", "values": [
      {"measurement": "Percentage remainder", "setting": "[1]", "value": 100, "unit": "%"},
      {"measurement": "remaining at 3 h", "setting": "[1]", "value": 99, "unit": "%"},
      {"measurement": "remaining at 6 h", "setting": "[1]", "value": 98.3, "unit": "%"},
      {"measurement": "remaining at 24 h", "setting": "[1]", "value": 97.1, "unit": "%"},
      {"measurement": "remaining at 48 h", "setting": "[1]", "value": 95.7, "unit": "%"},
      {"measurement": "remaining at 72 h", "setting": "[1]", "value": 94.4, "unit": "%"},
      {"measurement": "percentage of median survival time of test and control animals", "setting": "[2]; 2.0 mg/kg/day", "value": 142, "unit": "%"},
      {"measurement": "percentage of median survival time of test and control animals", "setting": "[2]; 4.0 mg/kg/day", "value": 146, "unit": "%"},
      {"measurement": "percentage of median survival time of test and control animals", "setting": "[2]; 8.0 mg/kg/day", "value": 152, "unit": "%"},
      {"measurement": "response vs control in vivo at 2 mg/kg/day", "setting": "[3]; [7]", "value": 116, "unit": "%"},
      {"measurement": "response vs control in vivo at 4 mg/kg/day", "setting": "[3]; Mus musculus, ip, 240 h, 4.0 mg/kg/day, read-out: percentage of mean survival time of test and control animals", "value": 136, "unit": "%"},
      {"measurement": "response vs control in vivo at 8 mg/kg/day", "setting": "[3]; Mus musculus, ip, 240 h, 8.0 mg/kg/day, read-out: percentage of mean survival time of test and control animals", "value": "> 203", "unit": "%"}
    ]},
    {"compound": "CCCCCc1cc2cc3c(c(O)c2c(=O)[nH]1)C1(CC3)C(=O)c2c(O)c3c(c(O)c2C1=O)C(=O)C(OC)=CC3=O", "note": "(centres unmarked) [Compound 17, tetrahydrofredericamycin A]", "values": [
      {"measurement": "percentage of mean survival time of test and control animals", "setting": "[4]; 0.25 mg/kg/day", "value": 102, "unit": "%"},
      {"measurement": "percentage of mean survival time of test and control animals", "setting": "[4]; 0.5 mg/kg/day", "value": 129, "unit": "%"},
      {"measurement": "percentage of mean survival time of test and control animals", "setting": "[4]; 1.0 mg/kg/day", "value": 164, "unit": "%"},
      {"measurement": "percentage of mean survival time of test and control animals", "setting": "[4]; 2.0 mg/kg/day", "value": 232, "unit": "%"},
      {"measurement": "percentage of median survival time of test and control animals", "setting": "[2]; 2.0 mg/kg/day", "value": 130, "unit": "%"},
      {"measurement": "percentage of median survival time of test and control animals", "setting": "[2]; 4.0 mg/kg/day", "value": 143, "unit": "%"},
      {"measurement": "percentage of median survival time of test and control animals", "setting": "[2]; 8.0 mg/kg/day", "value": 152, "unit": "%"},
      {"measurement": "response vs control in vivo at 0.125 mg/kg/day", "setting": "[3]; Mus musculus, ip, 240 h, 0.125 mg/kg/day, read-out: percentage of mean survival time of test and control animals", "value": 187, "unit": "%"},
      {"measurement": "response vs control in vivo at 0.25 mg/kg/day", "setting": "[3]; Mus musculus, ip, 240 h, 0.25 mg/kg/day, read-out: percentage of mean survival time of test and control animals", "value": 248, "unit": "%"},
      {"measurement": "response vs control in vivo at 0.5 mg/kg/day", "setting": "[3]; [8]", "value": 250, "unit": "%"}
    ]},
    {"compound": "C/C=C/C=C/c1cc2cc3c(c(O)c2c(=O)[nH]1)C1(CC3)C(=O)c2c(OC(=O)c3ccc(OC)cc3)c3c(c(OC(=O)c4ccc(OC)cc4)c2C1=O)C(=O)C(OC)=CC3=O", "note": "(centres unmarked) [Compound 10]", "values": [
      {"measurement": "MIC", "setting": "[5]", "value": 12.5, "unit": "µg/mL"},
      {"measurement": "response vs control in vivo at 0.5 mg/kg/day", "setting": "[3]; [8]", "value": 105, "unit": "%"},
      {"measurement": "response vs control in vivo at 1 mg/kg/day", "setting": "[3]; [9]", "value": 171, "unit": "%"},
      {"measurement": "response vs control in vivo at 2 mg/kg/day", "setting": "[3]; [7]", "value": "> 202", "unit": "%"},
      {"measurement": "MIC", "setting": "[6]", "value": 1.56, "unit": "µg/mL"}
    ]},
    {"compound": "C/C=C/C=C/c1cc2cc3c(c(O)c2c(=O)[nH]1)C1(CC3)C(=O)c2c(OC(=O)c3ccc(Cl)cc3)c3c(c(OC(=O)c4ccc(Cl)cc4)c2C1=O)C(=O)C(OC)=CC3=O", "note": "(centres unmarked) [Compound 11]", "values": [
      {"measurement": "response vs control in vivo at 0.5 mg/kg/day", "setting": "[3]; [8]", "value": "> 139", "unit": "%"},
      {"measurement": "response vs control in vivo at 1 mg/kg/day", "setting": "[3]; [9]", "value": "> 198", "unit": "%"},
      {"measurement": "response vs control in vivo at 2 mg/kg/day", "setting": "[3]; [7]", "value": "> 260", "unit": "%"}
    ]},
    {"compound": "C/C=C/C=C/c1cc2cc3c(c(O)c2c(=O)[nH]1)C1(CC3)C(=O)c2c(OC(=O)CC(C)C)c3c(c(OC(=O)CC(C)C)c2C1=O)C(=O)C(OC)=CC3=O", "note": "(centres unmarked) [Compound 2, Fredericamycin A diisovalerate]", "values": [
      {"measurement": "response vs control in vivo at 0.5 mg/kg/day", "setting": "[3]; [8]", "value": 120, "unit": "%"},
      {"measurement": "response vs control in vivo at 1 mg/kg/day", "setting": "[3]; [9]", "value": "> 168", "unit": "%"},
      {"measurement": "response vs control in vivo at 2 mg/kg/day", "setting": "[3]; [7]", "value": "> 229", "unit": "%"}
    ]},
    {"compound": "CCCCCCCCCCCC(=O)Oc1c2c(c(OC(=O)CCCCCCCCCCC)c3c1C(=O)C1(CCc4cc5cc(CCCCC)[nH]c(=O)c5c(O)c41)C3=O)C(=O)C(OC)=CC2=O", "note": "(centres unmarked) [Compound 21]", "values": [
      {"measurement": "Percentage remainder", "setting": "[1]", "value": 100, "unit": "%"},
      {"measurement": "remaining at 3 h", "setting": "[1]", "value": 95.3, "unit": "%"},
      {"measurement": "remaining at 6 h", "setting": "[1]", "value": 92.2, "unit": "%"},
      {"measurement": "remaining at 24 h", "setting": "[1]", "value": 87.3, "unit": "%"},
      {"measurement": "remaining at 48 h", "setting": "[1]", "value": 80.5, "unit": "%"},
      {"measurement": "remaining at 72 h", "setting": "[1]", "value": 74.8, "unit": "%"}
    ]},
    {"compound": "C/C=C/C=C/c1cc2cc3c(c(O)c2c(=O)[nH]1)C1(CC3)C(=O)c2c(OC(=O)CC)c3c(c(OC(=O)CC)c2C1=O)C(=O)C(OC)=CC3=O", "note": "(centres unmarked) [Compound 4]", "values": [
      {"measurement": "percentage of mean survival time of test and control animals", "setting": "[3]; 0.5 mg/kg/day", "value": "over 282%"},
      {"measurement": "percentage of mean survival time of test and control animals", "setting": "[3]; 1.0 mg/kg/day", "value": "over 288%"},
      {"measurement": "percentage of mean survival time of test and control animals", "setting": "[3]; 2.0 mg/kg/day", "value": 50, "unit": "%"}
    ]},
    {"compound": "C/C=C/C=C/c1cc2cc3c(c(O)c2c(=O)[nH]1)C1(CC3)C(=O)c2c(OC(=O)c3ccccc3)c3c(c(OC(=O)c4ccccc4)c2C1=O)C(=O)C(OC)=CC3=O", "note": "(centres unmarked) [Compound 8]", "values": [
      {"measurement": "response vs control in vivo at 0.5 mg/kg/day", "setting": "[3]; [8]", "value": 166, "unit": "%"},
      {"measurement": "response vs control in vivo at 1 mg/kg/day", "setting": "[3]; [9]", "value": "> 199", "unit": "%"},
      {"measurement": "response vs control in vivo at 2 mg/kg/day", "setting": "[3]; [7]", "value": 97, "unit": "%"}
    ]},
    {"compound": "C/C=C/C=C/c1cc2cc3c(c(O)c2c(=O)[nH]1)C1(CC3)C(=O)c2c(OC(=O)c3ccc(C)cc3)c3c(c(OC(=O)c4ccc(C)cc4)c2C1=O)C(=O)C(OC)=CC3=O", "note": "(centres unmarked) [Compound 3, Fredericamycin A di-p-methylbenzoate]", "values": [
      {"measurement": "MIC", "setting": "[5]", "value": 25, "unit": "µg/mL"},
      {"measurement": "MIC", "setting": "[6]", "value": 6.25, "unit": "µg/mL"}
    ]}
  ]
}
